Usually IC50 stands for the concentration that gives 50% inhibition.

One assay concerns the target HER2 A775_G776insYVMA (Homo sapiens (Human), UniProt P04626, INS775YVMA). Kind of assay: HTRF inhibitory activity against HER2 mutant enzyme. To be noted: recombinant enzyme, 37° C. for 2 hours. The format is biochemical. Summed up:
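Recombinant HER2 A775_G776insYVMA preincubated with compound, then […] and biotinylated peptide ([…]) added; 2 h at 37 °C in Tris-HCl pH 7.5 buffer with MgCl2, DTT. HTRF detection (Eu anti-phosphotyrosine/streptavidin-XL665); IC50 from 7 concentrations.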
Background: In TR-FRET formats the signal depends on donor and acceptor labels being close together.

Assay [1] concerns Ba/F3 HER2 A775_G776insYVMA. Kind of assay: Growth inhibition of Ba/F3 HER2 mutant cells (CellTiter-Glo). To be noted: Mus musculus, BaF3, 72 hours. The format is cell-based. How it is done:
(§1) The activity of the compounds of the present invention against Ba/F3 HER2 A775_G776insYVMA and Ba/F3 HER2 G776delinsVC mutant cell lines was measured using the CellTiter-Glo system purchased from Promega as follows. CellTiter-Glo assay is a method to measure cell viability by monitoring ATP present in cells. Ba/F3 HER2 A775_G776insYVMA and Ba/F3 HER2 G776delinsVC mutant cell lines were purchased from Crown Biosciences. Ba/F3 HER2 A775_G776insYVMA and Ba/F3 HER2 G776delinsVC mutant cell lines were cultured in RPMI containing 10% FBS and 1% penicillin-streptomycin with 1 μg/mL of puromycin in a CO2 incubator at 37° C.
(§2) The analysis of the ability of the compounds to inhibit the growth of HER2 mutant cells was performed according to the following method. 1,000 cells/100 μL were seeded in a 96-well cell culture plate, and 24 hours thereafter, the compounds represented by Formula 1 were treated with 0 μM, 0.01 μM, 0.03 μM, 0.1 μM, 0.3 μM, 1 μM, 3 μM, and 10 μM. After reacting for 72 hours, the plate treated with the compounds were left at room temperature for 30 minutes, 100 μL of a reagent was added thereto, and then shaken at room temperature for 10 minutes. Finally, using equipment, the ratio of […] was measured to confirm the cell growth inhibition ability of the compounds. The measured values at 8 compound concentrations were analyzed using the Prism program (version 5.01, Graphpad Software, Inc.), and the IC50 (μM) values, which are measures of the compounds' inhibitory ability, were calculated.
On the technique in general: Cellular ATP, detected with luciferase, serves as a proxy for viable cell number.

Another assay concerns Ba/F3 HER2 G776delinsVC. The description is as above. The assay is classed as cell-based. As to conditions: Mus musculus, BaF3, 72 hours. How it is done: as §1, §2
The target of another assay is EGFR del19 (Homo sapiens (Human), UniProt P00533, DEL746-750). Kind of assay: HTRF inhibitory activity against EGFR mutant enzyme (EGFR del19). As to conditions: recombinant enzyme, 37° C. for 2 hours. The assay is classed as biochemical. Summed up: (§3)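 Recombinant EGFR del19 or A763_Y764insFHEA was premixed with compound in 50 mM Tris pH 7.5 with 7.5 mM MgCl2 and 1 mM DTT. ATP (50 mM as printed) and biotin-peptide (0.5 mM) were added and reacted 2 h at 37 °C. The HTRF 665/615 read used streptavidin-XL665 and Eu anti-phosphotyrosine. IC50 was fitted from 7 concentrations.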

The test system of assay [2] is Ba/F3 EGFR V769_D770insASV. Kind of assay: Growth inhibition of Ba/F3 EGFR mutant cells (CellTiter-Glo). The assay is classed as cell-based. As to conditions: 72 hours. How it is done: (§4) The activity of the compounds of the present invention against Ba/F3 EGFR V769_D770insASV and Ba/F3 EGFR D770_N771insSVD mutant cell lines was measured using the CellTiter-Glo system purchased from Promega as follows. CellTiter-Glo assay is a method to measure cell viability by monitoring ATP present in cells. Ba/F3 EGFR V769_D770insASV and Ba/F3 EGFR D770_N771insSVD mutant cell lines were purchased from Crown Biosciences. Ba/F3 EGFR V769_D770insASV and Ba/F3 EGFR D770_N771insSVD mutant cell lines were cultured in RPMI containing 10% FBS and 1% penicillin-streptomycin with 1 μg/mL of puromycin in a 5% CO2 incubator at 37° C.
as §2, with “growth of EGFR mutant cells” for “growth of HER2 mutant cells”, “μM. After incubating for 72” for “μM. After reacting for 72”, “reagent was further added thereto,” for “reagent was added thereto,”

A further assay concerns the target EGFR A763_Y764insFHEA (Homo sapiens (Human), UniProt P00533, INS763FHEA). Kind of assay: HTRF inhibitory activity against EGFR mutant enzyme (EGFR A763_Y764insFHEA). The format is biochemical. As to conditions: recombinant enzyme, 37° C. for 2 hours. A digest of the protocol:
as §3

Assay [3] concerns Ba/F3 EGFR D770_N771insSVD. Kind of assay: Growth inhibition of Ba/F3 EGFR mutant cells (CellTiter-Glo). The assay is classed as cell-based. As to conditions: Ba/F3 EGFR-D770-N771ins_SVD, 72 hours. How it is done: as §4
as §2, with “growth of EGFR mutant cells” for “growth of HER2 mutant cells”, “μM. After incubating for 72” for “μM. After reacting for 72”, “reagent was further added thereto,” for “reagent was added thereto,”

EGFR A763_Y764insFHEA, sequence (P00533 other isoform, or with tags, fused parts or gaps del 1-694/ins FHEA behind 763 limits assumed): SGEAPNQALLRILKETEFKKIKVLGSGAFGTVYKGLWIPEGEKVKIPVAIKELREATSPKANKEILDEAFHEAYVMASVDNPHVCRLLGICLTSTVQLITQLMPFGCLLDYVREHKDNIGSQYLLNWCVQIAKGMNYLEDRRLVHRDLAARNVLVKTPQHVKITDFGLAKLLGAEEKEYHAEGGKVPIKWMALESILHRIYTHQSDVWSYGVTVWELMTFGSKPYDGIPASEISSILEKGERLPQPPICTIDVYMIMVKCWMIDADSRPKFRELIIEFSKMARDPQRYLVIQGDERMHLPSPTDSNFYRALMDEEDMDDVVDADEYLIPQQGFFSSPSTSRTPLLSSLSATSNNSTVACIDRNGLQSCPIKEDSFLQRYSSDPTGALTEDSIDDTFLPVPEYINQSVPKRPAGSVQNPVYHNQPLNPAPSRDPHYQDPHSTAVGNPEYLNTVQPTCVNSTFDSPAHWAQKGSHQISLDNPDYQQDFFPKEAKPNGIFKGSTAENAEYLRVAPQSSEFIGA
EGFR del19, sequence (P00533 other isoform, or with tags, fused parts or gaps del 1-668/del 746-750 limits assumed): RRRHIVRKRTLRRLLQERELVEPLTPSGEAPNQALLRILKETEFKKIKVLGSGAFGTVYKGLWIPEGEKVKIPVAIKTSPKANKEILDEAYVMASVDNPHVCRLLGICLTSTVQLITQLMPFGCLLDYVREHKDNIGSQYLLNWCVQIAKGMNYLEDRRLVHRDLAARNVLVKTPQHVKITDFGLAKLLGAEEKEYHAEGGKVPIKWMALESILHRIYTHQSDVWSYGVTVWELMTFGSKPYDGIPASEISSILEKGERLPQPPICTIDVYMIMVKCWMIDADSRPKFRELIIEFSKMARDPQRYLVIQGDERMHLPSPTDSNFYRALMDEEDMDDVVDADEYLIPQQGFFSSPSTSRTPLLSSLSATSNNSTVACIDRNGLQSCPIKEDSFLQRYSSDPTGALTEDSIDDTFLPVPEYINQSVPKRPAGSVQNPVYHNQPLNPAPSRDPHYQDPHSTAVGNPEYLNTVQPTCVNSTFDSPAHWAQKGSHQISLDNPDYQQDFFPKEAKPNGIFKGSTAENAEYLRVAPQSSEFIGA
HER2 A775_G776insYVMA, sequence (P04626 other isoform, or with tags, fused parts or gaps del 1-675/ins YVMA behind 775 limits assumed): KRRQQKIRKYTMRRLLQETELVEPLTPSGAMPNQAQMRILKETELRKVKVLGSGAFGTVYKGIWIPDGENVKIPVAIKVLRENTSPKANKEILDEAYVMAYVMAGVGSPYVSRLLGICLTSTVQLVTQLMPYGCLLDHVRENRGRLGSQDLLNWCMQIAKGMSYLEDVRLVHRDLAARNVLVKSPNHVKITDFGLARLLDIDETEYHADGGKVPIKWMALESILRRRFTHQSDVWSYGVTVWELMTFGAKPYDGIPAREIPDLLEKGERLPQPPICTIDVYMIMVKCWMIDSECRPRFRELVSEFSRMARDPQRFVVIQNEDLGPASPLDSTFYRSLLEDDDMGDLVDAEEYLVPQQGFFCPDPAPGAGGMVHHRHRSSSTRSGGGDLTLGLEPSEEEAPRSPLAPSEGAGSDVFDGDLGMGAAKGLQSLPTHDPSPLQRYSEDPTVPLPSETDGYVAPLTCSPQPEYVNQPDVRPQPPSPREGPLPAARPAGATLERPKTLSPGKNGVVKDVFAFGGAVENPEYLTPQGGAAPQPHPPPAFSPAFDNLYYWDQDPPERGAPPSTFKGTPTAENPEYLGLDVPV

As to `C=CC(=O)Nc1cc(Nc2ncc(Cl)c(Nc3ccccc3NS(=O)(=O)CC)n2)c(OC)cc1N(C)CCN(C)C` [Example 4, N-(5-((5-chloro-4-((2-(ethylsulfonamido)phenyl)amino)pyrimidin-2-yl)amino)-2-((2-(dimethylamino)ethyl)(methyl)amino)-4-methoxyphenyl)acrylamide], the IC50 at HER2 A775_G776insYVMA is 0.037 µM; in assay [1], above 0.1 µM; in the assay on Ba/F3 HER2 G776delinsVC, 0.01 to 0.03 µM; at EGFR del19 it was below 0.001 µM; in assay [2], 0.01 to 0.03 µM; on EGFR A763_Y764insFHEA, 0.002 µM.

With `C=CC(=O)Nc1cc(Nc2ncc(Cl)c(Nc3ccccc3NS(C)(=O)=O)n2)c(OC)cc1OCCN1CCCC1` [Example 22, N-(5-((5-chloro-4-((2-(methylsulfonamido)phenyl)amino)pyrimidin-2-yl)amino)-4-methoxy-2-(2-(pyrrolidin-1-yl)ethoxy)phenyl)acrylamide], the half-maximal inhibitory concentration (IC50) on HER2 A775_G776insYVMA is 0.022 µM; in assay [1], above 0.1 µM; in the assay with Ba/F3 HER2 G776delinsVC it was 0.01 to 0.03 µM; on EGFR del19, below 0.001 µM; in assay [3], above 0.1 µM; in assay [2], above 0.1 µM. Moreover, the IC50 on EGFR A763_Y764insFHEA was 0.003 µM.

Take `C=CC(=O)Nc1cc(Nc2ncc(Cl)c(Nc3cccc4c3N(S(C)(=O)=O)CCC4)n2)c(OC)cc1N(C)CCN1CCOCC1` [Example 53, N-(5-((5-chloro-4-((1-(methylsulfonyl)-1,2,3,4-tetrahydroquinolin-8-yl)amino)pyrimidin-2-yl)amino)-4-methoxy-2-(methyl(2-morpholinoethyl)amino)phenyl)acrylamide]: the IC50 on HER2 A775_G776insYVMA is 0.01 µM; in assay [1], 0.01 to 0.03 µM; in assay [3], 0.01 to 0.03 µM; in assay [2], 0.01 to 0.03 µM.

In the case of `C=CC(=O)Nc1cc(Nc2ncc(C(=O)OC(C)C)c(Nc3cccc4c3N(S(C)(=O)=O)CC4)n2)c(OC)cc1N(C)CCN(C)C` [Example 61, isopropyl 2-((5-acrylamido-4-((2-(dimethylamino)ethyl)(methyl)amino)-2-methoxyphenyl)amino)-4-((1-(methylsulfonyl)indolin-7-yl)amino)pyrimidin-5-carboxylate], the IC50 on HER2 A775_G776insYVMA was 0.001 µM; in assay [1], 0.01 to 0.03 µM; on EGFR del19 it was below 0.001 µM; in assay [3], 0.01 to 0.03 µM; in assay [2], 0.01 to 0.03 µM; on EGFR A763_Y764insFHEA, below 0.001 µM.

Consider `C=CC(=O)Nc1cc(Nc2ncc(C#N)c(Nc3cccc4c3N(S(C)(=O)=O)CC4)n2)c(OC)cc1N(C)CCN(C)C` [Example 62, N-(5-((5-cyano-4-((1-(methylsulfonyl)indolin-7-yl)amino)pyrimidin-2-yl)amino)-2-((2-(dimethylamino)ethyl)(methyl)amino)-4-methoxyphenyl)acrylamide], for which the concentration for half-maximal inhibition (IC50) on HER2 A775_G776insYVMA is 0.003 µM; in assay [1], 0.01 to 0.03 µM; in assay [3], 0.01 to 0.03 µM; in assay [2], 0.01 to 0.03 µM.

As to `C=CC(=O)Nc1cc(Nc2ncc(Cl)c(Nc3cccc4c3N(S(C)(=O)=O)CC4)n2)c(OC)cc1OCCN(C)C` [Example 63, N-(5-((5-chloro-4-((1-(methylsulfonyl)indolin-7-yl)amino)pyrimidin-2-yl)amino)-2-(2-(dimethylamino)ethoxy)-4-methoxyphenyl)acrylamide], the IC50 on HER2 A775_G776insYVMA is below 0.001 µM; in assay [1], 0.01 to 0.03 µM; in assay [3], 0.01 to 0.03 µM; in assay [2] it was 0.01 to 0.03 µM.

In the case of `C=CC(=O)Nc1cc(Nc2ncc(Cl)c(Nc3cccc4c3N(S(C)(=O)=O)CC4)n2)c(OC)cc1N(C)CCN1CCOCC1` [Example 64, N-(5-((5-chloro-4-((1-(methylsulfonyl)indolin-7-yl)amino)pyrimidin-2-yl)amino)-4-methoxy-2-(methyl(2-morpholinoethyl)amino)phenyl)acrylamide], the IC50 at HER2 A775_G776insYVMA is 0.003 µM; in assay [1], 0.01 to 0.03 µM; at EGFR del19 it was below 0.001 µM; in assay [3], 0.03 to 0.05 µM; in assay [2], 0.03 to 0.05 µM; at EGFR A763_Y764insFHEA, below 0.001 µM.

For `C=CC(=O)Nc1cc(Nc2ncc(C(F)(F)F)c(Nc3cccc4c3N(S(C)(=O)=O)CC4)n2)c(OC)cc1N(C)CCN(C)C` [Example 65, N-(2-((2-(dimethylamino)ethyl)(methyl)amino)-4-methoxy-5-((4-((1-(methylsulfonyl)indolin-7-yl)amino)-5-(trifluoromethyl)pyrimidin-2-yl)amino)phenyl)acrylamide], the IC50 was 0.015 µM on HER2 A775_G776insYVMA; 0.01 to 0.03 µM in assay [1]; below 0.001 µM on EGFR del19; 0.01 to 0.03 µM in assay [3]; 0.01 to 0.03 µM in assay [2]; below 0.001 µM at EGFR A763_Y764insFHEA.

Turning to `C=C(F)C(=O)Nc1cc(Nc2ncc(Cl)c(Nc3cccc4c3N(S(C)(=O)=O)CC4)n2)c(OC)cc1N(C)CCN(C)C` [Example 66, N-(5-((5-chloro-4-((1-(methylsulfonyl)indolin-7-yl)amino)pyrimidin-2-yl)amino)-2-((2-(dimethylamino)ethyl)(methyl)amino)-4-methoxyphenyl)-2-fluoroacrylamide], the IC50 at HER2 A775_G776insYVMA is 0.005 µM; in assay [1], 0.01 to 0.03 µM; at EGFR del19, below 0.001 µM; in assay [3] it was 0.01 to 0.03 µM; in assay [2], 0.01 to 0.03 µM; on EGFR A763_Y764insFHEA, below 0.001 µM.

Consider `C=CC(=O)Nc1cc(Nc2ncc(Cl)c(Nc3cccc4c3N(S(C)(=O)=O)CC4)n2)c(OC)cc1N(C)CCN1CCC1` [Example 80, N-(2-((2-(azetidin-1-yl)ethyl)(methyl)amino)-5-((5-chloro-4-((1-(methylsulfonyl)indolin-7-yl)amino)pyrimidin-2-yl)amino)-4-methoxyphenyl)acrylamide], for which the 50% inhibitory concentration (IC50) at HER2 A775_G776insYVMA is 0.001 µM; on EGFR del19, below 0.001 µM; in assay [3] it was below 0.01 µM; in assay [2], below 0.01 µM; on EGFR A763_Y764insFHEA, below 0.001 µM.

Consider `C=CC(=O)Nc1cc(Nc2ncc(Cl)c(Nc3ccc(C)cc3N(C)S(C)(=O)=O)n2)c(OC)cc1N(C)CCN1CCC1` [Example 82, N-(2-((2-(azetidin-1-yl)ethyl)(methyl)amino)-5-((5-chloro-4-((4-methyl-2-(N-methylmethylsulfonamido)phenyl)amino)pyrimidin-2-yl)amino)-4-methoxyphenyl)acrylamide], for which the half-maximal inhibitory concentration (IC50) is 0.002 µM at HER2 A775_G776insYVMA; below 0.001 µM at EGFR del19; below 0.01 µM in assay [3]; below 0.01 µM in assay [2]; below 0.001 µM at EGFR A763_Y764insFHEA.

As for `C=CC(=O)Nc1cc(Nc2ncc(F)c(Nc3cccc4c3N(C(C)=O)CC4)n2)c(OC)cc1N(C)CCN(C)C` [Example 101, N-(5-((4-((1-acetylindolin-7-yl)amino)-5-fluoropyrimidin-2-yl)amino)-2-((2-(dimethylamino)ethyl)(methyl)amino)-4-methoxyphenyl)acrylamide], the IC50 in assay [1] was 0.05 to 0.1 µM; in the assay on Ba/F3 HER2 G776delinsVC, below 0.01 µM; on EGFR del19, 0.001 µM; in assay [3] it was 0.03 to 0.05 µM; in assay [2], 0.01 to 0.03 µM; at EGFR A763_Y764insFHEA it was 0.005 µM.

The values above are taken from patent US20240343694A1, “PYRIMIDINE DERIVATIVE, METHOD FOR PREPARING SAME, AND PHARMACEUTICAL COMPOSITION FOR PREVENTING OR TREATING CANCER COMPRISING SAME AS ACTIVE INGREDIENT” (KOREA RESERARCH INSTITUTE OF CHEMICAL TECHNOLOGY, priority 2021, published 2024).
